This assay deals with HT-29 cells. Particulars: 5 mM; p<0.01 vs control. How it is done:
FIG. 20. Mitochondrial calorimetry. HT-29 cells were treated with acetate (5 mM) or without (Control) and assessed for ATP production by the Seahorse assay in vitro.

For `CC(=O)O` [Acetate], the ATP production entry was “significantly increase”.

Source of the values: patent US10201499B2, “Nanoparticle formulation” (United Kingdom Research and Innovation, priority 2012, dated 2019).
